The values below come from patent publication US7589125B2, “2,4-dihydroxybenzoic acid derivatives” (Palau Pharma, S.A., priority 2002, dated 2009).

Each structure is given as a SMILES string.

Data set [1] addresses farnesyltransferase (Homo sapiens, UniProt P49356). The note with it: Hardcastle et al, Tetrahedron Letters 2001, 42(7), 1363-1365; cited from earlier work.
Data set [2] deals with human umbilical vein endothelial cells (HUVEC). Put plainly: Cell viability in human non-proliferating cells (HUVEC). The format is cell-based. Particulars: concentrations up to 500 μM, 72 h of incubation.
The test system of data set [3] is immune-deficient BNX mice transplanted with human psoriatic skin. The experiment in a line: Test 2 - Psoriasis model in immune-deficient BNX mice transplanted with human psoriatic skin. The format is in vivo. Particulars: topical ointment at the concentration of 0.1%; p<0.01. The source says: Test 2—Psoriasis Model in Immune-deficient BNX Mice Transplanted with Human Psoriatic Skin
Method: The goal of this study is to assess the effect of the test compounds on the development of a psoriatic lesion, induced by super-antigen-activated human peripheral blood T-cells, in non-lesional skin from a psoriasis patient transplanted onto immune-deficient BNX mice. Mice (male/female, circa 20 g, 5 mice per group) were transplanted with non-lesional skin biopsies from psoriasis patients. Peripheral blood mononuclear cells from the same patients were isolated and stored in freezer until further use. Transplants were allowed to “lake” for 4 weeks. After this period, transplants were treated topically with test compound or control (vehicle) preparations for 1 week. Then, peripheral blood mononuclear cells from psoriatic patients, previously activated in vitro for 2 days with super-antigen, were injected into the transplants intra-dermally. Transplants were treated with test compound or control preparations for two additional weeks. Transplants were then harvested and epidermal thickness was measured by using computer-aided morphometric analysis.

The subject of data set [4] is hamster lung fibroblast cell line (V79 cells). The experiment in a line: Test 5 - Induction of apoptosis in tumor cells (active caspase-3, flow cytometry). Type of data set: cell-based. As to the method:
Test 5: Induction of Apoptosis in Tumor Cells
Method: The ability of the compounds of the invention to induce apoptosis was determined in a hamster lung fibroblast cell line (V79 cells). To determine the induction of apoptosis a commercially available kit was used (CaspaTag™ Caspase-3 (DEVD) Activity Kit, Intergen); this kit detects the presence in the cells of the active form of the enzyme caspase-3, which is an apoptosis marker. V79 cells were incubated for 72 h in culture medium (DMEM supplemented with 2 mM Glutamine and 10% fetal calf serum) in the presence of test compound (30 and 100 μM; solution in phosphate-buffered saline) or vehicle. Next, cells were washed with phosphate-buffered saline, treated with Trypsin-EDTA solution until the cell layer was dispersed and were resuspended in fresh growth medium at a concentration of 10^6 cells/mL. A 300 μL aliquote of each of the samples was transferred to a tube and was incubated with the irreversible, carboxyfluorescein-labeled peptidic caspase-3 inhibitor FAM-DEVD-FMK for 1 hour at 37° C. in 5% CO2 and protecting the tubes from light following the kit's instructions. […] The inhibitor in excess was washed and the cells were then analyzed by flow cytometry at 488 nm.

The test system of data set [5] is Male Swiss mice. The experiment in a line: Test 1 - Oxazolone-induced delayed hypersensitivity in mice (ear edema). Type of data set: in vivo. Particulars: topical on right ear, solution in acetone; FIG. 1. Here is the method: Test 1—Oxazolone-induced Delayed Hipersensitivity in Mice
Method: Male Swiss mice (25-30 g body weight) were sensitized by the application of a 2% solution of oxazolone (Sigma) in acetone (50 μL) into the shaved abdomen. Seven days later, 25 μL of a 1.5% solution of oxazolone was applied on both surfaces of the right ear of the animals. The left ear served as control and was only treated with the vehicle (acetone). 20 μL of the test compound (dissolved in acetone) or vehicle alone (control) was applied on both sides of the right ear, 24 h before challenge and 1 and 5 h after challenge. To evaluate the edema, mice were killed (by CO2 inhalation) and an 8 mm disc was excised from the right and left ears. The edema was measured by the difference in weight between the two ears and inhibition was expressed as percentage in relation to the control group.

Data set [6] has as its system human peripheral blood mononuclear cells (PBMC). Put plainly: Cell viability in human non-proliferating cells (PBMC). The format is cell-based. Particulars: concentrations up to 500 μM, 72 h of incubation.
The subject of data set [7] is Male Lewis rats. The experiment in a line: Test 3 - Inhibition of adjuvant-induced arthritis in the rat. Type of data set: in vivo. Particulars: 10 mg/kg/day p.o. for 28 days. As to the method: Test 3—Inhibition of Adjuvant-induced Arthritis in the Rat
Method: Male Lewis rats with body weight between 140 and 170 g and 7 week-old were used. Before the start of the study animals were acclimated for a period of at least 5 days. Animals were fasted for 18 hours before the study, with water ad libitum. Throughout the study, animals were allowed free access to drinking water, except during observation periods.
Groups of five animals were randomized (Sham, Control and Test compound). The duration of the study was 28 days. Arthritis was induced on day 1 of the study by a single subplantar injection of 0.1 mL of an emulsion prepared with 10 mg Mycobacterium butyricum and 10 mL Freund's incomplete adjuvant (Difco) to the right hindpaw of the animals from the Control (C) and Test compound (T) groups. Sham animals (S) received 0.1 mL Freund's incomplete adjuvant. Test compound was administered daily from day 1 of the study until day 28 at a dose of 10 mg/kg p.o. as a suspension in 1% Tween 80® while the Control group only received the vehicle. On day 28 of the development of arthritis, the volume of the left paw (secondary edema) was determined using a UGO BASILE 7150 plethysmometer. The inhibition of the increase in volume was calculated as follows: % Inh.=100−((T−S)/(C−S))*100 Where: T=Test compound group; C=Control group; and S=Sham group

Data set [8] deals with splenic lymphocytes from C57BL/6 mice stimulated with splenic lymphocytes from CBA mice. Put plainly: Test 4 - Immunosuppression model: murine mixed lymphocyte reaction. The format is cell-based. Here is the method: Test 4—Immunosupression Model: Murine Mixed Lymphocyte Reaction
Method: Immunosuppression was assessed by testing the effects of the compounds on the proliferation of splenic lymphocytes from C57BL/6 mice strain stimulated with splenic lymphocytes from CBA mice strain. Splenic lymphocyte populations were isolated from two mouse strains: CBA (acting as stimulating cells) and C57BL/6 (acting as proliferating cells). Homogenized mouse spleen was filtered and subsequently centrifuged at 250×g for 5 minutes at 4° C. The pellets were resuspended in culture medium (RPMI 1640 supplemented with 5% fetal calf serum and 2% antibiotics) and after repeating this process twice they were adjusted to a final density of 5×10^6 cells/mL. The isolated lymphocytes from CBA strain were treated with mitomycin C to block their proliferation.
In a 96-well plate, solutions of the test compounds or culture medium alone (for the control) were distributed. Next, 5×10^5 C57BL/6 cells and 2.5×10^5 CBA cells were added and incubated for 48 h (37° C., 5% CO2). After this preincubation 1 μCi of [^3H]-thymidine and 0.2 mM unlabeled thymidine were added to each well and the mixture was incubated 24 h. […]
Lymphocyte proliferation was measured as [^3H]-thymidine incorporation into the DNA of responding cells (C57BL/6) using a liquid scintillation counter (LS series, Beckman).

Chain of farnesyltransferase (P49356 whole entry): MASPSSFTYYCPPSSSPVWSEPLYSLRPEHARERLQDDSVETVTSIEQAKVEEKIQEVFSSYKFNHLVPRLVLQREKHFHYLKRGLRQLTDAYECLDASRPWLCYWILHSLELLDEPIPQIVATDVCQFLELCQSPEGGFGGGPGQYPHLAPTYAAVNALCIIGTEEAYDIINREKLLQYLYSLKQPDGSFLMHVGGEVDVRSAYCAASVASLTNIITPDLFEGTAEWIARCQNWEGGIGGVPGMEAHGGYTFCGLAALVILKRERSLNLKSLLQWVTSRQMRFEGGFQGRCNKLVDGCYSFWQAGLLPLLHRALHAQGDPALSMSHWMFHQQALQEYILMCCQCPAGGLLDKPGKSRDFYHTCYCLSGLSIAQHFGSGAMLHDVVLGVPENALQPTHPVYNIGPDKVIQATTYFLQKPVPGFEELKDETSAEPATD

Regarding `O=C(O)c1c(O)c(F)c(OCCCF)c(F)c1F` [2,3,5-trifluoro-4-(3-fluoropropoxy)-6-hydroxybenzoic acid], the farnesyltransferase inhibition result in data set [1] was “inactive”.

`COC(=O)c1ccc(OCCF)cc1O` [Example 4, Methyl 2-hydroxy-4-(2-fluoroethoxy)benzoate] registered a melting point of 64 °C.

On to `O=C(O)c1ccc(OCC(F)(F)C(F)(F)F)cc1O` [Example 6, 2-Hydroxy-4-(2,2,3,3,3-pentafluoropropoxy)benzoic acid], for which the cell viability result in [2] and in data set [6] was “not to affect cell viability” each time. For the same compound, in [3], the “inhibition of the increase of the epidermal thickness induced by intradermal injection of activated mononuclear cells” value is reported as “significant inhibition”. In data set [4] (30 and 100 μM, 72 h incubation, FIG. 2), the “number of cells containing the active form of caspase-3 (apoptotic cells)” value is on record as “concentration-dependent increase”. Besides, the “morphological observation of the cells (activation of apoptosis)” value in data set [4] (V79 cells) is “presence of cell membrane blebbing and the formation of apoptotic bodies”. For the same compound, in data set [5], the “inhibition of the edema (difference in weight between the two ears)” value is given as “concentration-dependent inhibition of the edema”. Also, the “inhibition of the increase in volume of the left paw (secondary edema)” value in data set [7] is reported as “significant inhibition”. For the same compound, the “inhibition of mice splenic lymphocyte proliferation ([3H]-thymidine incorporation)” value in data set [8] (300 μM) is “completely inhibited”. For the same compound, in data set [8] (Mus musculus, Splenic lymphocyte, 100 μM, read-out: inhibition of the proliferation of mice splenic lymphocytes), the inhibition at 100 µM was 60%.
